In article PMC8018653, “Gender-based differences in brain and plasma pharmacokinetics of letrozole in sprague-dawley rats: Application of physiologically-based pharmacokinetic modeling to gain quantitative insights” (PLoS ONE, 2021):

Assay: Whole body PBPK model with multi-compartment brain model (Simcyp Animal Simulator V17)
Parameters: species or system rat
Source text: Simcyp Animal Simulator V17 (Certara Inc.) was employed for developing a bottom-up whole body PBPK model incorporating the specified multi-compartment brain model. Based on its anatomy and physiology, the whole brain is described by three compartments, viz. brain blood, brain mass and cerebrospinal fluid (CSF) as illustrated in Fig 1 (Simcyp® Rat Simulator). For model development, the physiological/ system-specific parameters were inferred from the existing rodent species within the animal simulator while, the key drug- specific parameters used are summarized in Table 1. Briefly, all the physiochemical and binding to blood components (plasma proteins and erythrocytes) parameters of letrozole were derived from expansive literature review. The first-order rate of absorption (Ka) and bioavailability following oral administration and systemic clearance values in male and female rats were obtained from a previously reported pharmacokinetic study and the first-order absorption model best fit the letrozole data. Full-PBPK model was employed for drug distribution while the Rodgers and Rowland method or “Method 2”, as defined in Simcyp v17, predicted the volume of distribution (Vss). For the multi-compartment brain model, the passive permeability-surface area product on the BBB (PSB) was determined using the Crone- Renkin Equation [25, 26]: PSB=−Fpfln(1−Kin/Fpf) (3) where, Fpf is the cerebral blood or perfusion flow rate and Kin is the brain uptake clearance. We used 0.036 mL/sec/g as the Fpf for letrozole, based on a previous study that obtained an average cerebral perfusion flow rate value for lipophilic compounds [25]. […] The passive permeability-surface area product on the blood-cerebrospinal fluid barrier (BCSFB), PSC, was assumed as half of the PSB [19, 27] while the passive permeability-surface area product on the cerebrospinal fluid-brain barrier (CSFBB), PSE, was set at 80 mL/min, assuming a high permeability of this barrier. Brain ECF concentrations were predicted using the in vivo unbound fraction in the brain (fu, brain) for letrozole multiplied by the simulated total brain concentrations. The fu, brain for letrozole was experimentally determined in both healthy and tumor-bearing female Sprague-Dawley rats (N = 4/ group). Following single dose intraperitoneal administration of 4 mg/kg letrozole, both brain ECF (representative of unbound drug concentration in the brain) and whole brain tissue samples were collected at the same corresponding timepoint around the Tmax (~6 hrs) of letrozole in brain ECF and the fu, brain was calculated based on the ratio of observed brain ECF to the whole brain tissue homogenate concentrations of letrozole (0.58 ± 0.19; mean ± SD).
For evaluation of model predictions, the PBPK model developed was used to simulate extravascular administration of single/ multiple doses of letrozole (4 mg/kg) in rodents. To evaluate the predictive performance of the PBPK model, we compared the ratio of the predicted exposure change (Cmax and AUC ratios) against the observed data. A 1.25-fold under‐ or over‐prediction was considered good and within 1.5‐fold was deemed reasonable.

[1] = females, steady state, 4 mg/kg for 11 days
[2] = males, steady state, 4 mg/kg for 5 days

For N#Cc1ccc(C(c2ccc(C#N)cc2)n2cncn2)cc1 [letrozole], the “AUC 0–12, brain ECF, predicted/observed ratio” value (females, single dose 4 mg/kg) was 0.81, the “AUC 0–72, plasma, predicted/observed ratio” value (females, single dose 4 mg/kg) was 0.95 and the “Cmax, brain ECF, predicted/observed ratio” value (females, single dose 4 mg/kg) was 0.71. For the same molecule, the “Cmax, plasma, predicted/observed ratio” value (females, single dose 4 mg/kg) was 0.90, the “Half-life t1/2, plasma, predicted/observed ratio” value (females, single dose 4 mg/kg) was 1.29 and the “AUC 0–12, brain ECF, predicted/observed ratio” value [1] was 0.78. The “AUC 0–24, plasma, predicted/observed ratio” value [1] was 0.77, the “Cmax, brain ECF, predicted/observed ratio” value [1] was 0.66 and the “Cmax, plasma, predicted/observed ratio” value [1] was 0.76. For the same molecule, the “AUC 0–12, brain ECF, predicted/observed ratio” value (males, single dose 4 mg/kg) was 1.29, the “AUC 0–72, plasma, predicted/observed ratio” value (males, single dose 4 mg/kg) was 0.85 and the “Cmax, brain ECF, predicted/observed ratio” value (males, single dose 4 mg/kg) was 1.19. The “Cmax, plasma, predicted/observed ratio” value (males, single dose 4 mg/kg) was 0.75, the “Half-life t1/2, plasma, predicted/observed ratio” value (males, single dose 4 mg/kg) was 1.45 and the “AUC 0–12, brain ECF, predicted/observed ratio” value [2] was 1.07. For the same molecule, the “AUC 0–24, plasma, predicted/observed ratio” value [2] was 0.87, the “Cmax, brain ECF, predicted/observed ratio” value [2] was 0.96 and the “Cmax, plasma, predicted/observed ratio” value [2] was 0.80.
